Source: patent US11478433B2, “Nanomaterials with enhanced drug delivery efficiency” (Yale University, priority 2017, dated 2022)
Each block holds one compound with its values, some of them ahead of it.

Experiments:
[1] = Penetration through GI tract after oral gavage (IVIS, confocal microscopy)
Experimental: DTA SNPs encapsulating a near-infrared fluorescent dye, IR780, were prepared and administered to mice via oral gavage. After one hour, the GI tract was isolated, extensively washed, and imaged by IVIS®.

[2] = system: MDA-MB-231 flank tumor model; experiment: Intravenous treatment of flank tumor model with PTX-loaded OA SNPs; assay type: in vivo; conditions: over 30 days following treatment
Experimental: Next, drug delivery via encapsulation in OA SNPs was assayed in treating the flank tumor model.

[3] = system: human breast cancer MDA-MB-231 cells; experiment: Toxicity on breast cancer cells in vitro; assay type: cell-based
Experimental: FIG. 7 is a line graph showing the percentage of growth (%) of human breast cancer MDA-MB-231 cells over different concentrations (μg/mL) of different samples: PTX, DTA SNPs (denoted in this graph as SNPs), PTX-encapsulated DTA SNPs (denoted as PTX-SNPs).
Human breast adenocarcinoma cell line, MDA-MB-231 cells, were purchased from American Type Culture Collection (ATCC, Rockville, Md., USA). Cells were grown in DMEM medium (Invitrogen) supplemented with 10% fetal bovine serum (FBS, Invitrogen), 100 units/mL penicillin, and 100 µg/mL streptomycin (Invitrogen) in a 37° C. incubator containing 5% CO2.

[4] = system: MDA-MB-231 tumors; experiment: Oral treatment of mice bearing MDA-MB-231 tumors; assay type: in vivo; conditions: twice a week
Experimental: The therapeutic benefit of PTX-loaded DTX SNPs was evaluated for treatment of […]. Mice bearing MDA-MB-231 tumors of ˜50 mm^3 size were treated twice a week with orally injected saline (as a control), empty DTA SNPs, free PTX, or PTX-loaded DTX SNPs (denoted as PTX-SNPs). Tumor volumes were measured three times a week. Mice were euthanized when tumor volume reached ˜1000 mm^3, at which point the tumors were excised and fixed in formalin for immunohistochemistry. Serial sections were obtained and stained with TUNEL for analysis of cellular apoptosis. The growth curve was plotted using the mean of the tumor volumes for each treatment group, at each time point.

[5] = in vivo, cited from earlier work

location in GI tract ([1]; one hour after oral gavage, IR780, IVIS imaging): located mostly in the stomach
Compound: CCCN1/C(=C/C=C2\CCCC(/C=C/C3=[N+](CCC)c4ccccc4C3(C)C)=C2Cl)C(C)(C)c2ccccc21.[I-] [IR780]

Compound: CC(=O)O[C@H]1C(=O)[C@@]2(C)[C@H]([C@H](OC(=O)c3ccccc3)[C@]3(O)C[C@H](OC(=O)[C@H](O)[C@@H](NC(=O)c4ccccc4)c4ccccc4)C(C)=C1C3(C)C)[C@]1(OC(C)=O)CO[C@@H]1C[C@@H]2O [PTX, paclitaxel]
tumor volume / tumor growth [2]: grew substantially
toxicity on MDA-MB-231 cells [3]: comparable toxicity
reduction of tumor volumes compared to saline control [4]: 21%
oral bioavailability ([5]; po): less than 2%

fluorescence in intestinal villi ([1]; oral administration, confocal microscopy): limited fluorescence
Compound: CCN(CC)c1ccc2c(-c3ccccc3C(=O)O)c3ccc(=[N+](CC)CC)cc-3oc2c1.[Cl-] [rhodamine B]

Compound: GLP-1
half-life in the circulatory system [5]: < 2 min

Compound: C[C@@H]1CC[C@H]2[C@@H](C)C(=O)O[C@@H]3O[C@@]4(C)CC[C@@H]1[C@]32OO4 [Artemisinin, artemisinin]
bioavailability [5]: less than 10%
